Molecular target: PI3Kα (Homo sapiens, UniProt P42336, H1047R)
Assay: ADP-Glo IC50 assay
Format: biochemical
Conditions: class symbols; key not given

Chain of PI3Kα (P42336 whole entry H1047R): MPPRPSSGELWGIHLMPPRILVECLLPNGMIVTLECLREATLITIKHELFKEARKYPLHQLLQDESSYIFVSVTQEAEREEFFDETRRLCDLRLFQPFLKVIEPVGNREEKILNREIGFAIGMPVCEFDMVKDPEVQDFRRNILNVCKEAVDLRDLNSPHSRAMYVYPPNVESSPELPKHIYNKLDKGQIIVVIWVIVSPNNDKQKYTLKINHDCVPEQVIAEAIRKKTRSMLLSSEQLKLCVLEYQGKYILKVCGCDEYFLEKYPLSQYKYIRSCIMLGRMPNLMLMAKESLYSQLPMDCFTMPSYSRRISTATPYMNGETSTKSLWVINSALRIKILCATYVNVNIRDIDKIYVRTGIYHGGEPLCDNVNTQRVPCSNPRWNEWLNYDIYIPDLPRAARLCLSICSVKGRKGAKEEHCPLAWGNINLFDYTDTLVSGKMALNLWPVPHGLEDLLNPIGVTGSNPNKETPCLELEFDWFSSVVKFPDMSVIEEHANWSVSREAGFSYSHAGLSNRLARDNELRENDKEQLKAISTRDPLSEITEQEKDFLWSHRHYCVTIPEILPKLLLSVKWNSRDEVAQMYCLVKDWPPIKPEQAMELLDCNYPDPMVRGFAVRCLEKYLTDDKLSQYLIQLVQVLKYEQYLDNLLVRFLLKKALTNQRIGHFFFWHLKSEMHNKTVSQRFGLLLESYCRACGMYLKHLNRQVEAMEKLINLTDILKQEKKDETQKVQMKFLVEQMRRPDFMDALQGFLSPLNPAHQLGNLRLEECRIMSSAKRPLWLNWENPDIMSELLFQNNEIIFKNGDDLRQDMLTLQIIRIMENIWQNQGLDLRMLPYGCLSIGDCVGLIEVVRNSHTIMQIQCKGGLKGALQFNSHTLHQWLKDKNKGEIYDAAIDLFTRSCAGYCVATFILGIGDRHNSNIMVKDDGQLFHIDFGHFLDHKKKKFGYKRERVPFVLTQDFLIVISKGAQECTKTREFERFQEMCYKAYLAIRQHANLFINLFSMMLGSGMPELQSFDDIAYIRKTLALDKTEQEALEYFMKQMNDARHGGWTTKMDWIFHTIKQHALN
Chain of PI3Kα (P27986 whole entry partner): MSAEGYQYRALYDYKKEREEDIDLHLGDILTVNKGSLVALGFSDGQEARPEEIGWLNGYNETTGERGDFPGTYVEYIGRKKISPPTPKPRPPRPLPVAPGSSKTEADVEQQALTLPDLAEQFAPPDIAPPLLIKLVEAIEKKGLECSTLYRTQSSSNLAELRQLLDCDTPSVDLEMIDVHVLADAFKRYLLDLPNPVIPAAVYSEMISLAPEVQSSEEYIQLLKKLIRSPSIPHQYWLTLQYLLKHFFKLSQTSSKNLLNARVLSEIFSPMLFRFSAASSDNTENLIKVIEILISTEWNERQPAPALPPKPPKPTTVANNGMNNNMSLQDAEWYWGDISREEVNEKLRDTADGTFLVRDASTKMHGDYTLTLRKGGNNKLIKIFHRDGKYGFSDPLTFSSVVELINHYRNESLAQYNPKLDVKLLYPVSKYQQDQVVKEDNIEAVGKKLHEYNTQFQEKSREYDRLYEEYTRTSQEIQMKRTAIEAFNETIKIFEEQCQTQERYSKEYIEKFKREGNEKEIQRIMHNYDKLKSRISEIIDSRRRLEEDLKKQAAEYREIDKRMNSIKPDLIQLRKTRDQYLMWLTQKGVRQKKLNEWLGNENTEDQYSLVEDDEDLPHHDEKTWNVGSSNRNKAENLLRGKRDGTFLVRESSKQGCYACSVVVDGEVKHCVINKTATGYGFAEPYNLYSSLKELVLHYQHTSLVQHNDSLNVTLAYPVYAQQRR

Row | Structure (SMILES) | IC50 [nM]
1 | Cc1ccccc1Nc1ncc(C(=O)NCCOCCOCCOCCOCCC(=O)N[C@H](C(=O)N2C[C@H](O)C[C@H]2C(=O)NCc2ccc(-c3scnc3C)cc2)C(C)(C)C)cc1NC(=O)c1csc2ccccc12 [Example I-14] | 500 to 1000
2 | Cc1ccccc1Nc1ncc(C(=O)NCCCCCCC(=O)N[C@H](C(=O)N2C[C@H](O)C[C@H]2C(=O)NCc2ccc(-c3scnc3C)cc2)C(C)(C)C)cc1NC(=O)c1csc2ccccc12 [Example I-15] | 100 to 500
3 | Cc1ccccc1Nc1ncc(C(=O)NCCCCCCCCNc2ccc3c(c2)C(=O)N(C2CCC(=O)NC2=O)C3=O)cc1NC(=O)c1csc2ccccc12 (stereo not drawn) [Example I-16] | 100 to 500
4 | Cc1ccccc1Nc1ncc(C(=O)NCCCCCCCC(=O)N[C@H](C(=O)N2C[C@H](O)C[C@H]2C(=O)NCc2ccc(-c3scnc3C)cc2)C(C)(C)C)cc1NC(=O)c1csc2ccccc12 [Example I-18] | 100 to 500
5 | Cc1ccccc1Nc1ncc(C(=O)NCCCCCCC(=O)NCc2ccc3c(c2)CN(C2CCC(=O)NC2=O)C3=O)cc1NC(=O)c1csc2ccccc12 (stereo not drawn) [Example I-19] | 100 to 500
6 | Cc1ccccc1Nc1ncc(C(=O)NCCCCCCCCNC(=O)c2ccc3c(c2)CN(C2CCC(=O)NC2=O)C3=O)cc1NC(=O)c1csc2ccccc12 (stereo not drawn) [Example I-21] | 100 to 500
7 | Cc1ccccc1Nc1ncc(C(=O)NCCCCCCC(=O)N[C@H](C(=O)N2C[C@H](O)C[C@H]2C(=O)N[C@@H](C)c2ccc(-c3scnc3C)cc2)C(C)(C)C)cc1NC(=O)c1csc2ccccc12 [Example I-23] | 100 to 500
8 | Cc1ccccc1Nc1ncc(C(=O)NCCOCCOCCOCCC(=O)NCc2ccc3c(c2)CN(C2CCC(=O)NC2=O)C3=O)cc1NC(=O)c1csc2ccccc12 (stereo not drawn) [Example I-26] | 1000 to 10000
9 | COC(=O)CCCCCCCCCNC(=O)c1cnc(Nc2ccccc2C)c(NC(=O)c2csc3ccccc23)c1 [Example I-27] | 500 to 1000
10 | Cc1ccccc1Nc1ncc(C(=O)NCCOCCOCCC(=O)NCc2ccc3c(c2)CN(C2CCC(=O)NC2=O)C3=O)cc1NC(=O)c1csc2ccccc12 (stereo not drawn) [Example I-30] | 1000 to 10000
11 | Cc1ccccc1Nc1ncc(C(=O)NCCOCCOCCOCCOCCOCCOCCC(=O)N[C@H](C(=O)N2C[C@H](O)C[C@H]2C(=O)NCc2ccc(-c3scnc3C)cc2)C(C)(C)C)cc1NC(=O)c1csc2ccccc12 [Example I-32] | 1000 to 10000
12 | Cc1ccccc1Nc1ncc(C(=O)NCCOCCOCCOCCOCCOCCOCCC(=O)N[C@H](C(=O)N2C[C@H](O)C[C@H]2C(=O)N[C@@H](C)c2ccc(-c3scnc3C)cc2)C(C)(C)C)cc1NC(=O)c1csc2ccccc12 [Example I-33] | 1000 to 10000
13 | O=C1CCC(N2Cc3cc(C(=O)NCCCCCCCCCNC(=O)c4cnc(Nc5cc(F)ccc5Cl)c(NC(=O)c5csc6ccccc56)c4)ccc3C2=O)C(=O)N1 (stereo not drawn) [Example I-34] | 500 to 1000
14 | Cc1ccccc1Nc1ncc(C(=O)NCCOCCOCCOCCC(=O)N[C@H](C(=O)N2C[C@H](O)C[C@H]2C(=O)NCc2ccc(-c3scnc3C)cc2)C(C)(C)C)cc1NC(=O)c1csc2ccccc12 [Example I-35] | 1000 to 10000
15 | Cc1ccccc1Nc1ncc(C(=O)NCCOCCOCCC(=O)N[C@H](C(=O)N2C[C@H](O)C[C@H]2C(=O)NCc2ccc(-c3scnc3C)cc2)C(C)(C)C)cc1NC(=O)c1csc2ccccc12 [Example I-37] | 1000 to 10000
16 | Cc1ccccc1Nc1ncc(C(=O)NCCCCCC(=O)N[C@H](C(=O)N2C[C@H](O)C[C@H]2C(=O)NCc2ccc(-c3scnc3C)cc2)C(C)(C)C)cc1NC(=O)c1csc2ccccc12 [Example I-38] | 100 to 500
17 | Cc1ccccc1Nc1ncc(C(=O)NCCOCCOCCC(=O)N[C@H](C(=O)N2C[C@H](O)C[C@H]2C(=O)N[C@@H](C)c2ccc(-c3scnc3C)cc2)C(C)(C)C)cc1NC(=O)c1csc2ccccc12 [Example I-40] | 1000 to 10000
18 | O=C(CCCCCCCNC(=O)c1cnc(Nc2cc(F)ccc2Cl)c(NC(=O)c2csc3ccccc23)c1)NCc1ccc2c(c1)CN(C1CCC(=O)NC1=O)C2=O (stereo not drawn) [Example I-41] | 100 to 500
19 | Cc1ccccc1Nc1ncc(C(=O)NCCCCCCCNc2cccc3c2C(=O)N(C2CCC(=O)NC2=O)C3=O)cc1NC(=O)c1csc2ccccc12 (stereo not drawn) [Example I-42] | 100 to 500
20 | Cc1ccccc1Nc1ncc(C(=O)NCCCCC(=O)N[C@H](C(=O)N2C[C@H](O)C[C@H]2C(=O)NCc2ccc(-c3scnc3C)cc2)C(C)(C)C)cc1NC(=O)c1csc2ccccc12 [Example I-43] | 500 to 1000
21 | Cc1ccccc1Nc1ncc(C(=O)NCCCC#Cc2ccc3c(c2)CN(C2CCC(=O)NC2=O)C3=O)cc1NC(=O)c1csc2ccccc12 (stereo not drawn) [Example I-44] | 100 to 500
22 | Cc1ncsc1-c1ccc(CNC(=O)[C@@H]2C[C@@H](O)CN2C(=O)[C@@H](NC(=O)CCCCCCCCCNC(=O)c2cnc(Nc3cc(F)ccc3Cl)c(NC(=O)c3csc4ccccc34)c2)C(C)(C)C)cc1 [Example I-45] | 100 to 500
23 | Cc1ccccc1Nc1ncc(C(=O)NCCOCCOCCOCCOCCC(=O)NCc2ccc3c(c2)CN(C2CCC(=O)NC2=O)C3=O)cc1NC(=O)c1csc2ccccc12 (stereo not drawn) [Example I-47] | 1000 to 10000
24 | Cc1ccccc1Nc1ncc(C(=O)NCCCC(=O)N[C@H](C(=O)N2C[C@H](O)C[C@H]2C(=O)NCc2ccc(-c3scnc3C)cc2)C(C)(C)C)cc1NC(=O)c1csc2ccccc12 [Example I-48] | 500 to 1000

Row | Structure (SMILES) | IC50 [nM]
25 | Cc1ccccc1Nc1ncc(C(=O)NCCCCNc2cccc3c2C(=O)N(C2CCC(=O)NC2=O)C3=O)cc1NC(=O)c1csc2ccccc12 (stereo not drawn) [Example I-49] | 100 to 500
26 | Cc1ccccc1Nc1ncc(C(=O)NCCCNc2cccc3c2C(=O)N(C2CCC(=O)NC2=O)C3=O)cc1NC(=O)c1csc2ccccc12 (stereo not drawn) [Example I-51] | 100 to 500
27 | Cc1ccccc1Nc1ncc(C(=O)NCCOCCOCCOCCOCCOCCOCCC(=O)NCc2ccc3c(c2)CN(C2CCC(=O)NC2=O)C3=O)cc1NC(=O)c1csc2ccccc12 (stereo not drawn) [Example I-52] | 10000 to 100000
28 | Cc1ccccc1Nc1ncc(C(=O)Nc2ccc(N3CCN(c4ccc5c(c4)C(=O)N(C4CCC(=O)NC4=O)C5=O)CC3)cc2)cc1NC(=O)c1csc2ccccc12 (stereo not drawn) [Example I-55] | 100 to 500
29 | Cc1ccccc1Nc1ncc(C(=O)NCCCNc2ccc3c(c2)C(=O)N(C2CCC(=O)NC2=O)C3=O)cc1NC(=O)c1csc2ccccc12 (stereo not drawn) [Example I-56] | < 100
30 | Cc1ccccc1Nc1ncc(C(=O)NCCCC(=O)N[C@H](C(=O)N2C[C@H](O)C[C@H]2C(=O)N[C@@H](C)c2ccc(-c3scnc3C)cc2)C(C)(C)C)cc1NC(=O)c1csc2ccccc12 [Example I-57] | 500 to 1000
31 | Cc1ccccc1Nc1ncc(C(=O)NCCCCCC(=O)NCc2ccc3c(c2)C(=O)N(C2CCC(=O)NC2=O)C3)cc1NC(=O)c1csc2ccccc12 (stereo not drawn) [Example I-58] | 100 to 500
32 | Cc1ccccc1Nc1ncc(C(=O)NCCCCCCNc2cccc3c2C(=O)N(C2CCC(=O)NC2=O)C3=O)cc1NC(=O)c1csc2ccccc12 (stereo not drawn) [Example I-59] | 500 to 1000
33 | Cc1ccccc1Nc1ncc(C(=O)NCCCNC(=O)c2ccc3c(c2)CN(C2CCC(=O)NC2=O)C3=O)cc1NC(=O)c1csc2ccccc12 (stereo not drawn) [Example I-61] | 100 to 500
34 | O=C1CCC(N2C(=O)c3ccc(NCCCCCNC(=O)c4cnc(Nc5cc(F)ccc5Cl)c(NC(=O)c5csc6ccccc56)c4)cc3C2=O)C(=O)N1 (stereo not drawn) [Example I-63] | 100 to 500
35 | Cc1ccccc1Nc1ncc(C(=O)NCCc2ccc(Nc3ccc4c(c3)C(=O)N(C3CCC(=O)NC3=O)C4=O)cc2)cc1NC(=O)c1csc2ccccc12 (stereo not drawn) [Example I-64] | 100 to 500
36 | Cc1ccccc1Nc1ncc(C(=O)NCCCCC(=O)N[C@H](C(=O)N2C[C@H](O)C[C@H]2C(=O)N[C@@H](C)c2ccc(-c3scnc3C)cc2)C(C)(C)C)cc1NC(=O)c1csc2ccccc12 [Example I-65] | 500 to 1000
37 | O=C1CCC(N2Cc3cc(C(=O)NCCCCCCCNC(=O)c4cnc(Nc5cc(F)ccc5Cl)c(NC(=O)c5csc6ccccc56)c4)ccc3C2=O)C(=O)N1 (stereo not drawn) [Example I-66] | 100 to 500
38 | NC(=O)CCCCCCCCCNC(=O)c1cnc(Nc2cc(F)ccc2Cl)c(NC(=O)c2csc3ccccc23)c1 [Example I-68] | 100 to 500
39 | O=C1CCC(N2C(=O)c3ccc(NCCCCCCCNC(=O)c4cnc(Nc5cc(F)ccc5Cl)c(NC(=O)c5csc6ccccc56)c4)cc3C2=O)C(=O)N1 (stereo not drawn) [Example I-69] | 100 to 500
40 | O=C1CCC(N2Cc3cc(C(=O)NCCCCCCCCCNC(=O)c4cc(NC(=O)c5cc(F)cc(C(F)(F)F)c5)c5c(c4)C(=O)N[C@@H]5c4cc(F)ccc4Cl)ccc3C2=O)C(=O)N1 (stereo partly drawn) [Example I-70] | 1000 to 10000
41 | Cc1ncsc1-c1ccc(CNC(=O)[C@@H]2C[C@@H](O)CN2C(=O)[C@@H](NC(=O)CCCCCCCCCNC(=O)c2cc(NC(=O)c3cc(F)cc(C(F)(F)F)c3)c3c(c2)C(=O)N[C@H]3c2cc(F)ccc2Cl)C(C)(C)C)cc1 [Example I-71] | 500 to 1000
42 | Cc1ncsc1-c1ccc(CNC(=O)[C@@H]2C[C@@H](O)CN2C(=O)[C@@H](NC(=O)CCCCCCCCCNC(=O)c2cc(NC(=O)c3cc(F)cc(C(F)(F)F)c3)c3c(c2)C(=O)N[C@@H]3c2cc(F)ccc2Cl)C(C)(C)C)cc1 [Example I-73] | < 100
43 | Cc1ccccc1Nc1ncc(C(=O)NCCCC[C@H](N)C(=O)N[C@H](C(=O)N2C[C@H](O)C[C@H]2C(=O)NCc2ccc(-c3scnc3C)cc2)C(C)(C)C)cc1NC(=O)c1csc2ccccc12 [Example I-74] | 1000 to 10000
44 | O=C1CCC(N2C(=O)c3ccc(NCCCCCNC(=O)c4cc(NC(=O)c5cc(F)cc(C(F)(F)F)c5)c5c(c4)C(=O)N[C@@H]5c4cc(F)ccc4Cl)cc3C2=O)C(=O)N1 (stereo partly drawn) [Example I-75] | 500 to 1000
45 | O=C(O)CCCCCCCCCNC(=O)c1cc(NC(=O)c2cc(F)cc(C(F)(F)F)c2)c2c(c1)C(=O)N[C@@H]2c1cc(F)ccc1Cl [Example I-76] | < 100
46 | O=C1CCC(N2Cc3cc(C(=O)NCCCCCCCNC(=O)c4cc(NC(=O)c5cc(F)cc(C(F)(F)F)c5)c5c(c4)C(=O)N[C@H]5c4cc(F)ccc4Cl)ccc3C2=O)C(=O)N1 (stereo partly drawn) [Example I-77] | < 100
47 | NC(=O)CCCCCCCCCNC(=O)c1cc(NC(=O)c2cc(F)cc(C(F)(F)F)c2)c2c(c1)C(=O)N[C@H]2c1cc(F)ccc1Cl [Example I-79] | 1000 to 10000
48 | O=C1CCC(N2Cc3cc(C(=O)NCCCCCCCNC(=O)c4cc(NC(=O)c5cc(F)cc(C(F)(F)F)c5)c5c(c4)C(=O)N[C@@H]5c4cc(F)ccc4Cl)ccc3C2=O)C(=O)N1 (stereo partly drawn) [Example I-80] | 100 to 500
